From ChEMBL document CHEMBL1159264, “Aplysillin A, a thrombin receptor antagonist from the marine sponge Aplysina fistularis fulva” (J Nat Prod, 1995)

Target: T1, Proteinase-activated receptor 1 (Homo sapiens, UniProt P25116)
T1 sequence (P25116 whole entry): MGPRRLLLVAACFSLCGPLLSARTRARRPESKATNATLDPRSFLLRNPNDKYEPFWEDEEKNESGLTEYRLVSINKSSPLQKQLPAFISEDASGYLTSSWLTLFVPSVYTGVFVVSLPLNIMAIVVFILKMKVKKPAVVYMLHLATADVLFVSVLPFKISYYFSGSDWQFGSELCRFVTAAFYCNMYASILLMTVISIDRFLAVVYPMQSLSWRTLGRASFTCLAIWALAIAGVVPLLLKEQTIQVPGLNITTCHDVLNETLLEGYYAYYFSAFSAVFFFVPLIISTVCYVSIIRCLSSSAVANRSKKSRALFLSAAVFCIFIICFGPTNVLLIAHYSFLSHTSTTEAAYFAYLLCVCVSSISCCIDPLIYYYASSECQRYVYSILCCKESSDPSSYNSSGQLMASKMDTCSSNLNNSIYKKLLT
Assay: Displacement of [125I]thrombin from thrombin receptor in human platelet membrane
Format: cell membranes

O=S(=O)(O)OC(=C\c1cc(O)c(O)c(Br)c1)/C(=C\c1ccc(O)c(Br)c1)OS(=O)(=O)O [APLYSIILLIN A]
IC50: 20 µM
